Measurements published in patent US9335320B2, “Combinations of phosphoinositide 3-kinase inhibitor compounds and chemotherapeutic agents for the treatment of hematopoietic malignancies” (Genentech, Inc., priority 2009, dated 2016).
Read-outs that look alike come from different tables or passages of the source.

How the values were obtained:
[1] = system: multiple myeloma OPM-2 cell xenografts; assay: In vivo tumor xenograft efficacy, OPM-2; design: species or system mice; conditions: FIG. 13, 24 days; GDC-0941 73 mg/kg po, bortezomib 0.5 mg/kg iv, lenalidomide 25 mg/kg ip, dexamethasone 3 mg/kg po
Description: (§1) Xenografts were initiated with cancer cells.
(§2) Animals were monitored for regression responses.

[2] = system: NCI-H929 multiple myeloma xenografts; assay: In vivo tumor xenograft efficacy, NCI-H929; design: species or system mice; conditions: for antitumor activity (mean tumor volume change): lenalidomide 25 mg/kg ip
Description: as §1, §2

[3] = system: WSU-DLCL2 lymphoma tumor xenografts; assay: In vivo tumor xenograft efficacy, WSU-DLCL2; design: species or system mice; conditions: for effect on tumor growth (mean tumor volume change): FIG. 18, 25 days, GDC-0941 60 mg/kg po, Formula Ib 1 mg/kg po, Rapamycin 6 mg/kg ip
Description: as §1, §2

WSUNHL = assay: CellTiter-Glo cell proliferation assay, WSUNHL; assay type: cell-based; conditions: Homo sapiens, WSU-NHL, single agent, Table 2
DoHH2 = assay: CellTiter-Glo cell proliferation assay, DoHH2; conditions: for EC50: Homo sapiens
Description: (§3) The in vitro potency of the combinations of Formula I compounds with chemotherapeutic agents was measured by the cell proliferation assay of Example 15; the CellTiter-Glo® Luminescent Cell Viability Assay, commercially available from Promega Corp., Madison, Wis. […] The homogeneous assay procedure involves adding the single reagent (CellTiter-Glo® Reagent) directly to cells cultured in serum-supplemented medium. Cell washing, removal of medium and multiple pipetting steps are not required. The system detects as few as 15 cells/well in a 384-well format in 10 minutes after adding reagent and mixing.
The individual measured EC50 values of the Formula I compounds and of the chemotherapeutic agent against the particular cell are compared to the combination EC50 value. The combination index (CI) score is calculated by the Chou and Talalay method (Chou, T. and Talalay, P. (1984) Adv. Enzyme Regul. 22:27-55). A CI less than 0.8 indicates synergy. A CI between 0.8 and 1.2 indicates additivity. A CI greater than 1.2 indicates antagonism. The strength of synergy is assessed according to Chou and Talalay.
The assay assesses the ability of compounds to enter cells and inhibit cell proliferation. The assay principle is based on the determination of the number of viable cells present by quantitating the ATP present in a homogenous assay where addition of the Cell-Titer Glo reagent results in cell lysis and generation of a luminescent signal through the luciferase reaction. The luminescent signal is proportional to the amount of ATP present.
Procedure: Day 1—Seed Cell Plates (384-well black, clear bottom, microclear, TC plates with lid from Falcon #353962), Harvest cells, Seed cells at 1000 cells per 54 μl per well into 384 well Cell Plates for 3 days assay. Cell Culture Medium: RPMI or DMEM high glucose, 10% Fetal Bovine Serum, 2 mM L-Glutamine, P/S. Incubate O/N at 37 C, 5% CO2.
Day 2—Add Drug to Cells, Compound Dilution, DMSO Plates (serial 1:2 for 9 points), Add 20 ul compounds at 10 mM in the 2nd column of 96 well plate. […]

[4] = system: p-AKT and p-S6RP in DoHH2, WSU-DLCL2, OPM2, and U266 cells; assay: FACS intracellular detection of p-Akt and p-S6 ribosomal protein; assay type: cell-based, human; conditions: 5 μM for 4 hrs, FIGS. 1a and 1b
Description: (§4) B cell lines (DoHH2 and WSU-DLCL2) and Myeloma cell lines (OPM2 and U266) were maintained in RPMI-1640/10% FBS in the presence of Pen/Strep and Glutamine.
Seed 10^7 cells of each cell line in 10 mL culture media in 10 cm Petri dish, 2 dishes for each cell line. • 2. […] Keep cells at 37° C., 5% CO2 incubator for 4 hours before harvesting. • 4. Transfer 1 mL of each condition (equivalent to 10^6 cells) to 5 mL FACS tube (BD) and spin at 1200 rpm for 5 min prior to fixation (harvest the other 9 mL culture-9×10^6 cells to 15 mL conical tube for Western). • 5. Aspirate the supernatant and fix the cells at room temperature with Fix/Perm Medium A (CAT #GAS001S-100) for 15 min. • 6. Wash the cells with PBS/2% FBS 1× • 7. Aspirate the supernatant and permeabilize the cells at room temperature with Fix/Perm Medium B (CAT #GAS002S-100) for 15 min. • 8. Wash the cells with PBS/2% FBS 1× • 9. Resuspend cells with 300 uL PBS/2% BSA and divide cells into 3 tubes 100 uL each (one for isotype-Rabbit IgG Alexa Fluor-647 and one for p-Akt Alexa Fluor-647 clone 193H12 and one for p-S6RP Alexa Fluor-647 clone D57.2.2E, all rabbit abs are from Cell Signaling). • 10. Add 50 ng of each Ab to corresponding tube and incubate at room temperature for 30 min. • 11. Wash the cells with PBS/2% FBS 1× • 12. Resuspend cells with 300 uL PBS/2% BSA and acquire data on FACSCalibur (BD) using CellQuest program. • 13. […]

RPMI-8226 = assay: CellTiter-Glo cell proliferation assay, RPMI-8226; conditions: Homo sapiens, RPMI-8226, read-out: EC50 (μM) GDC-0941 (single agent)
Description: as §3
(§5) The individual measured EC50 values of the Formula I compounds and of the chemotherapeutic agent against the particular cell are compared to the combination EC50 value. The combination index (CI) score is calculated by the Chou and Talalay method (Chou, T. and Talalay, P. (1984) Adv. Enzyme Regul. 22:27-55). A CI less than 0.8 indicates synergy. […] The strength of synergy is assessed according to Chou and Talalay.
(§6) The assay assesses the ability of compounds to enter cells and inhibit cell proliferation. The assay principle is based on the determination of the number of viable cells present by quantitating the ATP present in a homogenous assay where addition of the Cell-Titer Glo reagent results in cell lysis and generation of a luminescent signal through the luciferase reaction. […]

Bjab = assay: CellTiter-Glo cell proliferation assay, Bjab; conditions: Homo sapiens
Description: (§7) The homogeneous assay procedure involves adding the single reagent (CellTiter-Glo® Reagent) directly to cells cultured in serum-supplemented medium. Cell washing, removal of medium and multiple pipetting steps are not required. The system detects as few as 15 cells/well in a 384-well format in 10 minutes after adding reagent and mixing.
(§8) The individual measured EC50 values of the Formula I compounds and of the chemotherapeutic agent against the particular cell are compared to the combination EC50 value. […] A CI less than 0.8 indicates synergy. A CI between 0.8 and 1.2 indicates additivity. A CI greater than 1.2 indicates antagonism. The strength of synergy is assessed according to Chou and Talalay.
(§9) The CellTiter-Glo® Luminescent Cell Viability Assay, including reagents and protocol are commercially available (Promega Corp., Madison, Wis., Technical Bulletin TB288). The assay assesses the ability of compounds to enter cells and inhibit cell proliferation. The assay principle is based on the determination of the number of viable cells present by quantitating the ATP present in a homogenous assay where addition of the Cell-Titer Glo reagent results in cell lysis and generation of a luminescent signal through the luciferase reaction. […]
(§10) Day 5—Develop Plates, Thaw Cell Titer Glo Buffer at room temperature. […] Read luminescence on Analyst HT Plate Reader (half second per well). […]

OPM2 = assay: CellTiter-Glo cell proliferation assay, OPM2
Description: as §7, §8, §9, §10

SUDHL6 = assay: CellTiter-Glo cell proliferation assay, SUDHL6; assay type: cell-based; conditions: Homo sapiens, SU-DHL-6; SUDHL6 (DLBCL), single agent, Table 2
SUDHL4 = assay: CellTiter-Glo cell proliferation assay, SUDHL4; assay type: cell-based; conditions: Homo sapiens, SU-DHL-4; SUDHL4 (DLBCL), single agent, Table 2
Toledo = assay: CellTiter-Glo cell proliferation assay, Toledo; assay type: cell-based; conditions: Homo sapiens; Toledo (DLBCL), single agent, Table 2
Jeko1 = assay: CellTiter-Glo cell proliferation assay, Jeko1; assay type: cell-based; conditions: Homo sapiens, JeKo-1; Jeko1 (MCL), single agent, Table 2
NCI-H929 = assay: CellTiter-Glo cell proliferation assay, NCI-H929; conditions: Homo sapiens, NCI-H929, read-out: EC50 (μM) GDC-0941 (single agent)
Description: as §3, §5, §6

WSU-DLCL2 = assay: CellTiter-Glo cell proliferation assay, WSU-DLCL2; conditions: Homo sapiens
Description: as §3, §5, §6

MOLP-8 = assay: CellTiter-Glo cell proliferation assay, MOLP-8; conditions: Homo sapiens, MOLP-8, read-out: EC50 (μM) GDC-0941 (single agent)
Description: as §3, §5, §6

MC116 = assay: CellTiter-Glo cell proliferation assay, MC116; assay type: cell-based; conditions: Homo sapiens; MC116 (NHL), single agent, Table 2
[5] = system: DoHH2 lymphoma tumor xenografts; assay: In vivo tumor xenograft efficacy, DoHH2; conditions: FIG. 8, 34 days; GDC-0941 73 mg/kg po daily 21 days, rituximab 5 mg/kg iv qwk×3, CHOP
Description: The efficacy of the combinations of the invention may be measured in vivo by implanting allografts or xenografts of cancer cells in rodents and treating the tumor-bearing animals with the combinations.
The animals were fed ad libitum water (reverse osmosis, 1 ppm Cl) and NIH 31 Modified and Irradiated Lab Diet® consisting of 18.0% crude protein, 5.0% crude fat, and 5.0% crude fiber. The mice were housed on irradiated ALPHA-Dri® Bed-O'Cobs® Laboratory Animal Bedding in static microisolators on a 12-hour light cycle at 21-22° C. (70-72° F.) and 40-60% humidity.
Xenografts were initiated with cancer cells. […] On the day of tumor implant, each test mouse received 1×10^7 cells (0.2 mL) implanted subcutaneously in the right flank, and tumor growth was monitored as the average size approached the target range of 100 to 150 mm3. […] Volume was calculated using the formula: Tumor Volume (mm^3)=(w^2×l)/2 […]
Tumors were measured twice each week using calipers. Mice were monitored individually, and each animal was euthanized when its tumor reached a volume of 1500 mm3 or at the end of the study on Day 40, whichever came first. […] The time to endpoint (TTE) for each mouse was calculated from the following equation: TTE (days)=[log10(endpoint volume,mm^3)−b]/m […]

[6] = system: BJAB lymphoma tumor xenografts; assay: In vivo tumor xenograft efficacy, BJAB; design: species or system mice
Description: as §1, §2

SUDHL5 = assay: CellTiter-Glo cell proliferation assay, SUDHL5; assay type: cell-based; conditions: Homo sapiens, SU-DHL-5; SUDHL5 (DLBCL), single agent, Table 2
[7] = system: p-AKT and p-S6RP in DoHH2, WSU-DLCL2, OPM2, and U266 cells; assay: Western blotting for p-Akt, p-BAD and p-S6 ribosomal protein; assay type: cell-based, human; conditions: 5 μM for 4 hrs, FIG. 2
Description: Cells were treated as indicated and lysates analyzed by Western Blotting. Beta Actin blotting indicates approximately equal loading of lysates in each lane.
as §4
Protocol: • 1. Seed 10^7 cells of each cell line in 10 mL culture media in 10 cm Petri dish, 2 dishes for each cell line. • 2. […] Keep cells at 37° C., 5% CO2 incubator for 4 hours before harvesting. • 4. Harvest 9 mL culture (equivalent to 9×10^6 cells) to 15 mL conical tube and pellet and make cell lysates with 1×SDS sample buffer. Transfer the other 1 mL of each condition (equivalent to 1×10^6 cells) to 5 mL FACS tube (BD) for FACS. • 5. Wash cells once with cold PBS. • 6. Measure the OD of the protein samples and prepare the samples with NuPAGE electrophoresis system reagents to load 20 ug of each. • 7. Mix each protein sample for electrophoresis with appropriate amount of NuPAGE LDS sample buffer and Reducing Agent and apply 70° C. heat for 10 min. • 8. Load 10 uL of SeeBlue Plus2 Pre-stained standard and 20 ug of each sample into 4-12% NuPAGE Norvex Bis-Tris Gel and run with MES-SDS buffer in the presence of antioxidant (135 volts for 1 hour in the XCell SureLock Mini-Cell apparatus). • 9. Transfer gels to the blotting membrane using iBlot apparatus. • 10. […]

Ramos = assay: CellTiter-Glo cell proliferation assay, Ramos; assay type: cell-based; conditions: Homo sapiens; Ramos (Burkit's), single agent, Table 2
SC1 = assay: CellTiter-Glo cell proliferation assay, SC1; assay type: cell-based; conditions: Homo sapiens, SC-1; SC1 (DLBCL), single agent, Table 2
KSM-12-BM = assay: CellTiter-Glo cell proliferation assay, KSM-12-BM; assay type: cell-based; conditions: Homo sapiens, read-out: EC50 (μM) GDC-0941 (single agent), Table 4
Rec1 = assay: CellTiter-Glo cell proliferation assay, Rec1; assay type: cell-based; conditions: Homo sapiens; Rec1 (B-NHL), single agent, Table 2
[8] = system: primary diffuse large B-cell lymphoma (DLBCL) cells from patient NHL640-A055; conditions: patient NHL640-A055, FIG. 5
EJM = assay: CellTiter-Glo cell proliferation assay, EJM; assay type: cell-based; conditions: Homo sapiens, read-out: EC50 (μM) GDC-0941 (single agent), Table 4
[9] = system: primary follicular lymphoma cells from patient NHL600; assay: Cell-Titer Glo survival and proliferation assay, primary follicular lymphoma cells; assay type: cell-based, human; conditions: patient NHL600, FIG. 4, single agent
Description: GDC-0464 (Genentech, Inc.) is a potent thienopyrimidine PI3K inhibitor (US 2008/0076758). LY294002 (Eli Lilly & Co., CAS Reg. No. 154447-36-6) is also a potent inhibitor of PI3 kinases (WO 2003/035099).

MM1.S = assay: CellTiter-Glo cell proliferation assay, MM1.S; conditions: Homo sapiens, read-out: EC50 (μM) GDC-0941 (single agent)
Description: as §3, §5, §6

OciLy19 = assay: CellTiter-Glo cell proliferation assay, OciLy19; assay type: cell-based; conditions: Homo sapiens, OCI-LY19; OciLy19 (DLBCL), single agent, Table 2
Farage = assay: CellTiter-Glo cell proliferation assay, Farage; assay type: cell-based; conditions: Farage (DLBCL), single agent, Table 2
DB = assay: CellTiter-Glo cell proliferation assay, DB; assay type: cell-based; conditions: Homo sapiens; DB (DLBCL), single agent, Table 2
Granta519 = assay: CellTiter-Glo cell proliferation assay, Granta519; assay type: cell-based; conditions: Homo sapiens, Granta-519; Granta519 (MCL), single agent, Table 2
RI1 = assay: CellTiter-Glo cell proliferation assay, RI1; assay type: cell-based; conditions: Ri-1; RI1 (B-NHL), single agent, Table 2
HT = assay: CellTiter-Glo cell proliferation assay, HT; assay type: cell-based; conditions: Homo sapiens; HT (DLBCL), single agent, Table 2
[10] = FIG. 16, 33 days, GDC-0941 75 mg/kg po, bortezomib 0.5 mg/kg iv, dexamethasone 3 mg/kg po

SMILES: Nc1cccc2c1CN(C1CCC(=O)NC1=O)C2=O (stereo not shown) [lenalidomide, 3-(4-amino-1-oxoisoindolin-2-yl)piperidine-2,6-dione]
- antitumor activity (mean tumor volume change) [1]: indistinguishable and moderate tumor activity
- antitumor activity (mean tumor volume change) [2, 10]: modest activity

SMILES: CC(C)C[C@H](NC(=O)[C@H](Cc1ccccc1)NC(=O)c1cnccn1)B(O)O [bortezomib, [(1R)-3-methyl-1-({(2S)-3-phenyl-2-[(pyrazin-2-ylcarbonyl)amino]propanoyl}amino)butyl]boronic acid]
- antitumor activity (mean tumor volume change) [1]: sub-clinical response which was not different than that of vehicle
- antitumor activity (mean tumor volume change) ([2]; FIG. 12, 22 days, single agents, GDC-0941 73 mg/kg po, bortezomib 1 mg/kg iv, dexamethasone 10 mg/kg po): exceeded by the efficacy of bortezomib
- partial responses ([2]; FIG. 12, cohorts of 10 mice): 3
- antitumor activity (mean tumor volume change) [2, 10]: modest activity

SMILES: Cc1c(CN2CCN(C(=O)[C@H](C)O)CC2)sc2c(N3CCOCC3)nc(-c3cnc(N)nc3)nc12 [Formula Ib, (S)-1-(4-((2-(2-aminopyrimidin-5-yl)-7-methyl-4-morpholinothieno[3,2-d]pyrimidin-6-yl)methyl)piperazin-1-yl)-2-hydroxypropan-1-one]
- effect on tumor growth (mean tumor volume change) [3]: little effect on tumor growth

SMILES: CS(=O)(=O)N1CCN(Cc2cc3nc(-c4cccc5[nH]ncc45)nc(N4CCOCC4)c3s2)CC1 [GDC-0941, 4-(2-(1H-indazol-4-yl)-6-((4-(methylsulfonyl)piperazin-1-yl)methyl)thieno[3,2-d]pyrimidin-4-yl)morpholine]
- EC50 (WSUNHL): 160 nM
- EC50 (DoHH2; DOHH-2): 0.26 µM
- EC50 (DoHH2; DOHH-2, read-out: EC50 (μM) GDC-0941 (single agent)): 0.16 µM
- p-AKT signal (flow cytometry) [4]: abolished p-AKT signal
- p-S6RP signal (flow cytometry) [4]: reduced or abolished p-S6RP signal
- EC50 (RPMI-8226): 2.53 µM
- EC50 (Bjab): 0.33 µM
- EC50 (Bjab; read-out: EC50 (μM) GDC-0941 (single agent)): 0.33 µM
- antitumor activity (mean tumor volume change) ([3]; FIG. 7, 20 days, GDC-0941 73 mg/kg po daily 21 days, rituximab 5 mg/kg days 0, 7, 14, CHOP from day 0): only modest activity
- effect on tumor growth (mean tumor volume change) [3]: little effect on tumor growth
- EC50 (OPM2; Homo sapiens, OPM-2, read-out: EC50 (μM) GDC-0941 (single agent)): 1.23 µM
- EC50 (SUDHL6): 10 nM
- EC50 (SUDHL4): 1350 nM
- EC50 (Toledo): ≥ 10000 nM
- EC50 (Jeko1): 320 nM
- EC50 (NCI-H929): 0.43 µM
- EC50 (WSU-DLCL2; WSUDLCL2): 0.13 µM
- EC50 (WSU-DLCL2; WSUDLCL2, read-out: EC50 (μM) GDC-0941 (single agent)): 0.17 µM
- EC50 (MOLP-8): 0.06 µM
- EC50 (MC116): 160 nM
- antitumor activity (mean tumor volume change) [5]: significantly different than vehicle
- antitumor activity (mean tumor volume change) ([6]; FIG. 10, 25 days, GDC-0941 73 mg/kg po daily 21 days, CHOP from day 0): only modest activity
- antitumor activity (mean tumor volume change) ([6]; FIG. 11, 25 days, GDC-0941 75 mg/kg po qd×21, rituximab 5 mg/kg days 0, 7, 14): only modest activity
- EC50 (SUDHL5): 80 nM
- antitumor activity (mean tumor volume change) [1]: indistinguishable and moderate tumor activity
- p-AKT signal (western blotting) [7]: significantly reduced (where present)
- p-S6RP signal (western blotting) [7]: significantly reduced (where present)
- EC50 (Ramos): ≥ 10000 nM
- EC50 (SC1): ≥ 10000 nM
- EC50 (KSM-12-BM): > 5 µM
- EC50 (Rec1): 160 nM
- cell viability, relative potency [8]: significantly more potent than doxorubicin
- EC50 (EJM): 1.5 µM
- potency against primary cancer cells (viable cells) [9]: surprising and unexpected degree of potency
- EC50 (MM1.S): 0.22 µM
- EC50 (OciLy19): 320 nM
- EC50 (Farage): 240 nM
- EC50 (DB): ≥ 10000 nM
- EC50 (Granta519): 210 nM
- EC50 (RI1): 40 nM
- EC50 (HT): 2840 nM

SMILES: C[C@@H]1C[C@H]2[C@@H]3CCC4=CC(=O)C=C[C@]4(C)[C@@]3(F)[C@@H](O)C[C@]2(C)[C@@]1(O)C(=O)CO [dexamethasone, (8S,9R,10S,11S,13S,14S,16R,17R)-9-fluoro-11,17-dihydroxy-17-(2-hydroxyacetyl)-10,13,16-trimethyl-6,7,8,11,12,14,15,16-octahydrocyclopenta[a]phenanthren-3-one, reference compound]
- single agent activity on viable cells (dose-response) (DoHH2; B-NHL cell line DoHH2, FIG. 3): relatively impotent activity
- response in cell proliferation assay (OPM2; multiple myeloma OPM2 cells, FIG. 6, single agent): relatively weak response
- antitumor activity (mean tumor volume change) [1]: indistinguishable and moderate tumor activity
- antitumor activity (mean tumor volume change) [2, 10]: modest activity
